In patent US20250032403A1, “COMPOSITIONS FOR TREATING PERIODONTAL DISEASES” (GR Biosystems, Inc., priority 2017, published 2025):
Entries after “also recorded” stand apart in the source; their conditions may differ.

Tests used:
Human MMP-14; MMP14 = assay: Real time quantitative PCR of MMP-14 gene expression in HGF-1 cells; assay type: cell-based
Method: (§1) Gene expression of MMPs was evaluated after treatment under different conditions. The tissue culture was washed with PBS. […] All samples were treated with Qiagen DNase (Cat #79254).
(§2) Real time quantitative PCR was performed on an Applied Biosciences StepOne plus instrument and analyzed with StepOne software v2.3. The relative amounts of transcripts from each gene were normalized to reference gene GAPDH and calculated as follows: ΔΔCT=the average ΔCT of […]−the average ΔCT of […], and their fold difference=2^−ΔΔCT as previously described.

MMP-9 [1] = assay: Western blot of MMP-9 protein expression in LPS-induced HGF-1 cells; assay type: cell-based, human; conditions: FIG. 5
Method: (§3) Human Gingival Fibroblasts (HGF-1) were purchased from ATCC (Manassas, VA) and were grown in DMEM with Glutamax, 10% FBS and Penicillin/Streptomycin (All from Gibco) and kept at 37° C. in a humidified air chamber with 5% CO2. Cells were seeded at 3×10^5 cells/flask for the experiments and then grown to confluency. Cells between 3 and 10 passages were used for all experiments.
(§4) 1,2,3,4,6-Penta-O-galloyl-β-D-glucose (purchased from Sigma-Aldrich) was dissolved in dimethylsulfoxide (DMSO) to obtain a 100 mM stock solution.
(§5) The supernatant was collected and assayed for protein concentration.
(§6) The gels were prepared by standard methods and electrophoresed for 1 hour at 150 V.
(§7) Incubation was done according to specific instructions from the manufacturer for each antibody. […] After incubation and washing with PBS-T, the membranes were incubated in the dark in blocking solution with 0.2% Tween, IRDye 800CW Goat anti-Rabbit IgG, and IRDye® 680RD Donkey anti-Mouse IgG (1:10000, LI-COR Biosciences, Lincoln, NE) for 1 hour at room temperature. The proteins were detected and visualized by fluorescence using the Licor Odyssey Classic Infrared Imaging system (LI-COR Biosciences, Lincoln, NE). Densitometry analysis of specific bands was performed with the Image Studio software provided by LI-COR Biosciences. […]

MMP-3 = assay: Western blot of MMP-3 protein expression in LPS-induced HGF-1 cells; assay type: cell-based, human
Method: as §3, §4, §5, §6
(§8) Incubation was done according to specific instructions from the manufacturer for each antibody. […] After incubation and washing with PBS-T, the membranes were incubated in the dark in blocking solution with 0.2% Tween, IRDye 800CW Goat anti-Rabbit IgG, and IRDye® 680RD Donkey anti-Mouse IgG (1:10000, LI-COR Biosciences, Lincoln, NE) for 1 hour at room temperature. The proteins were detected and visualized by fluorescence using the Licor Odyssey Classic Infrared Imaging system (LI-COR Biosciences, Lincoln, NE). Densitometry analysis of specific bands was performed with the Image Studio software provided by LI-COR Biosciences. Statistical analysis, including 1-way ANOVA with Dunnett's Multiple Comparison Test, was done using GraphPad Prism (GraphPad Software, La Jolla, CA).
HGF-1 cells were treated with lipopolysaccharide (LPS, 5 μg/mL) from P. gingivalis in order to reproduce the type of inflammatory response seen in chronic periodontitis.
(§9) HGF-1 cells were induced with LPS (5 μg/mL) to mimic the inflammatory process and Curcumin was added at different concentrations (2.5, 5 and 10 μM).

MMP-2 = assay: Western blot of MMP-2 protein expression in LPS-induced HGF-1 cells; assay type: cell-based, human; conditions: for MMP-2 production: HGF-1, LPS 5 μg/mL + curcumin 2.5, 5 or 10 μM, n=3, FIG. 15
Method: as §3, §4, §5, §6, §8
Human gingival fibroblasts (HGF-1) were treated with lipopolysaccharide (LPS) from P. gingivalis to reproduce the type of inflammatory response seen in chronic periodontitis. Upon treatment with […], MMP-2 was released into the pericellular space to be activated by MMP-14. Subsequently, MMP-2 and MMP-14 activate MMP-13. […] LPS activation of MMP-2, MMP-13 and MMP-14, however, was attenuated by the administration of PGG.
as §9

Human MMP-2; MMP2 = assay: Real time quantitative PCR of MMP-2 gene expression in HGF-1 cells; assay type: cell-based
Method: as §1, §2

MMP-14 = assay: Western blot of MMP-14 protein expression in LPS-induced HGF-1 cells; assay type: cell-based, human
Method: as §3, §4, §5, §6, §7

TNF-α = conditions: PBMCs, doses as low as 5 μM; cited from earlier work
MMP-13 = assay: Western blot of MMP-13 protein expression in LPS-induced HGF-1 cells; assay type: cell-based, human
Method: as §3, §4, §5, §6, §7

TNF-α, IL-1β and IL-6 = conditions: peritoneal and colonic macrophages; cited from earlier work
MyD88 adaptor protein = target: T1, MyD88 adaptor protein (Mus musculus, UniProt P22366); conditions: peritoneal and colonic macrophages; cited from earlier work
T1 construct: host or cells: peritoneal and colonic macrophages

MMP-9 [2] = assay: Real time quantitative PCR of MMP-9 gene expression in HGF-1 cells; assay type: cell-based, human
Method: as §1, §2

Human MMP-13; MMP13 = assay: Real time quantitative PCR of MMP-13 gene expression in HGF-1 cells; assay type: cell-based
Method: as §1, §2

[3] = test system: toll-like receptors 4 (TLR4); conditions: peritoneal and colonic macrophages; cited from earlier work
MMPs = assay: Real time quantitative PCR of MMP gene expression (all MMPs tested) in HGF-1 cells; assay type: cell-based, human
Method: as §1, §2

TNF-α and IL-1β = conditions: peripheral blood mononuclear cells, PGG alone; cited from earlier work
[4] = HGF-1, LPS 5 μg/mL + PGG 100 μM, p<0.05, n=3
[5] = HGF-1, LPS + PGG 50-100 μM, FIG. 6
[6] = HGF-1, LPS + PGG 25 μM (lowest dose tested), 48 hours

T1 sequence (P22366 whole entry): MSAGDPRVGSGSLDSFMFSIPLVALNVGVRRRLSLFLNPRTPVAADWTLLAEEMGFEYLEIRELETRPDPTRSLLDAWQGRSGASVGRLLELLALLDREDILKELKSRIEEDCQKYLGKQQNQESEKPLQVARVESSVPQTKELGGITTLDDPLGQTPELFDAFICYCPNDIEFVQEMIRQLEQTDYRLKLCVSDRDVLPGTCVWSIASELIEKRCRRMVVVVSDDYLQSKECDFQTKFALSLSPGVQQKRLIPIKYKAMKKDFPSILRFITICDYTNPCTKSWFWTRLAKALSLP

Compound: O=C(OC[C@H]1O[C@@H](OC(=O)c2cc(O)c(O)c(O)c2)[C@H](OC(=O)c2cc(O)c(O)c(O)c2)[C@@H](OC(=O)c2cc(O)c(O)c(O)c2)[C@@H]1OC(=O)c1cc(O)c(O)c(O)c1)c1cc(O)c(O)c(O)c1 [PGG, 1,2,3,4,6-penta-O-galloyl-β-D-glucose]
- MMP-14 gene expression compared with induction with LPS alone (Human MMP-14; MMP14; [4]): significantly reduced the expression of MMP-9, MMP-13 and MMP-14
- MMP-14 gene expression compared with LPS induction with or without PGG 25 μM (Human MMP-14; MMP14; [5]): reduced MMP-2, MMP-9, MMP-13, and MMP-14 expression
- MMP-9 protein level compared to LPS inflammatory control (MMP-9 [1]; HGF-1, LPS 5 μg/mL + PGG at a dose lower than 50 μM): decreased the MMP-9 level
- MMP-9 protein level, return to normal levels (MMP-9 [1]; HGF-1, LPS 5 μg/mL + PGG): did not return to normal levels until it was treated with at least 50 μM PGG
- MMP-3 protein level (MMP-3; HGF-1, LPS 5 μg/mL + PGG 25 μM, FIG. 4): comparable to healthy control values
- MMP-3 protein level (MMP-3; HGF-1, LPS 5 μg/mL + PGG 50 and 100 μM, p<0.001, FIG. 4): further reduced MMP-3 to levels below basal production
- MMP-2 protein level after LPS treatment (MMP-2; [6]): reduction of these three MMPs to basal levels of production
- MMP-2 levels compared to healthy control (MMP-2; HGF-1, PGG 100 μM, FIG. 1): reduced significantly; also recorded: lower than in healthy controls
- MMP-2 expression compared to healthy controls (MMP-2; HGF-1, simultaneously treated with LPS and increasing PGG concentrations, FIG. 1): not significantly different than in healthy controls
- MMP-2 gene expression (Human MMP-2; MMP2; HGF-1, LPS 5 μg/mL + PGG 100 μM, p<0.01, n=3, FIG. 6): decreased the expression of MMP-2 compared to treatment with PGG 25-50 μM, yet expression was still higher compared with healthy HGF-1
- MMP-2 gene expression compared with LPS induction with or without PGG 25 μM (Human MMP-2; MMP2; [5]): reduced MMP-2, MMP-9, MMP-13, and MMP-14 expression
- MMP-14 expression in the PGG treated groups (MMP-14; HGF-1, LPS 5 μg/mL + PGG, 48 hour, FIG. 3): not significantly different than the healthy controls; also recorded: not significantly different from healthy controls
- MMP-14 protein level after LPS treatment (MMP-14; [6]): reduction of these three MMPs to basal levels of production
- suppression of LPS-induced TNF-α production (TNF-α): ≤ 90%
- MMP-13 protein level after LPS treatment (MMP-13; [6]): reduction of these three MMPs to basal levels of production
- MMP-13 expression in the PGG treated groups (MMP-13; HGF-1, LPS + PGG, FIG. 2): not significantly different than the healthy controls; also recorded: prevented upregulation of MMP-13 in a dose-dependent manner
- production of TNF-α, IL-1β and IL-6 (TNF-α, IL-1β and IL-6): decreasing the production
- interaction with MyD88 adaptor protein (MyD88 adaptor protein): interacted directly
- MMP-9 gene expression compared with induction with LPS alone (MMP-9 [2]; [4]): significantly reduced the expression of MMP-9, MMP-13 and MMP-14
- MMP-9 gene expression compared with LPS induction with or without PGG 25 μM (MMP-9 [2]; [5]): reduced MMP-2, MMP-9, MMP-13, and MMP-14 expression
- MMP-13 gene expression compared with induction with LPS alone (Human MMP-13; MMP13; [4]): significantly reduced the expression of MMP-9, MMP-13 and MMP-14
- MMP-13 gene expression compared with LPS induction with or without PGG 25 μM (Human MMP-13; MMP13; [5]): reduced MMP-2, MMP-9, MMP-13, and MMP-14 expression
- interference with the binding of LPS to TLR4 [3]: did not interfere
- MMP gene expression (MMPs; HGF-1, LPS 5 μg/mL + PGG 25 μM, FIG. 6): did not vary gene expression in a significant manner
- MPP gene expression (MMPs; healthy HGF-1 (no LPS), PGG 100 μM): did not significantly change
- cytokine production of PBMCs on treatment with PGG (TNF-α and IL-1β): resulted in the production of TNF-α and IL-1β

Compound: COc1cc(/C=C/C(=O)CC(=O)/C=C/c2ccc(O)c(OC)c2)ccc1O [curcumin, reference compound]
- MMP-3 production (MMP-3; HGF-1, LPS 5 μg/mL + curcumin 2.5, 5 and 10 μM, FIG. 16): decreased MMP-3 production
- MMP-2 production (MMP-2): not significantly different that the untreated HGF-1
- MMP-2 production (MMP-2; listed as Curcumin): decreased MMP-2 production
- MMP-2 expression (MMP-2; HGF-1 treated with Curcumin 10 μM alone (no LPS), p>0.05, n=3): not significantly different from untreated HGF-1
